Measured values published in PubChem BioAssay (NCI).
Several values for one entry are separate records, joined by “and”; a condition that tells them apart may be missing. Identical values can stand only once.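 Cultured in 96-well plates, cells were exposed to test compound for 48 hours across five concentrations. GI50 is the concentration that inhibits growth by half. TGI denotes the concentration required for complete inhibition of growth.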

Key:
Experiment in all cases: NCI-60 cell line screen, 48 h
DU-145 prostate = test system: DU-145 prostate
HS 578T breast = test system: HS 578T breast
KM12 colon = test system: KM12 colon
NCI-H226 lung = test system: NCI-H226 lung
NCI/ADR-RES ovarian = test system: NCI/ADR-RES ovarian
SK-MEL-2 melanoma = test system: SK-MEL-2 melanoma
SK-OV-3 ovarian = test system: SK-OV-3 ovarian
UACC-257 melanoma = test system: UACC-257 melanoma

SMILES | GI50 (DU-145 prostate) | TGI (DU-145 prostate) | GI50 (HS 578T breast) | TGI (HS 578T breast) | GI50 (KM12 colon) | TGI (KM12 colon) | GI50 (NCI-H226 lung) | TGI (NCI-H226 lung) | GI50 (NCI/ADR-RES ovarian) | TGI (NCI/ADR-RES ovarian) | GI50 (SK-MEL-2 melanoma) | TGI (SK-MEL-2 melanoma) | GI50 (SK-OV-3 ovarian) | TGI (SK-OV-3 ovarian) | GI50 (UACC-257 melanoma) | TGI (UACC-257 melanoma)
COc1ccc(/C=C2\CC(C)CC3C2=NN(C(C)=O)C3c2ccc(OC)cc2)cc1 (centres undefined) | 25700 nM | 78.1 µM | 22100 nM | 60.6 µM | 16900 nM | 46.5 µM | 16500 nM | 39.1 µM | 21300 nM | 73.2 µM | 30300 nM | > 100 µM | 28.7 µM | > 100 µM | 19800 nM | 45 µM
O=C(O)c1ccc(S(=O)(=O)Nc2ccc3oc4c(c3c2)C(=O)CCC4)cc1 | > 100000 nM | > 100 µM | > 100000 nM | > 100 µM | > 100000 nM | > 100 µM | > 100000 nM | > 100 µM | > 100000 nM | > 100 µM | > 100000 nM | > 100 µM | > 100 µM | > 100 µM | > 100000 nM | > 100 µM
N#CSc1c[nH]c2ccc(/C=C/C(=O)/C=C(/C=C/c3ccc4[nH]cc(SC#N)c4c3)OB(F)F)cc12 | 694 nM | 2.55 µM | 1360 nM | > 100 µM | 1020 nM | 4.82 µM | 2180 nM | 5.62 µM | 1740 nM | > 100 µM | 2920 nM | 8.04 µM | 25.3 µM | 88.3 µM | 2820 nM | 33.6 µM
CCN(CC)c1ccc2c(c1)Oc1nc(N)c(C#N)c(N)c1C2Sc1ccc(OC)cc1 (centres undefined) | 1820 nM | 3.25 µM | 2170 nM | 6.11 µM | 1740 nM | 3.73 µM | 1820 nM | 3.55 µM | 2810 nM | 8.86 µM | 1560 nM | 3.14 µM | 1.92 µM | 3.38 µM | 1980 nM | 3.48 µM
O=C(O)c1cc2ccccc2c(N=Nc2cc(C(F)(F)F)ccc2Cl)c1O |  | > 100 µM |  | > 100 µM |  | > 100 µM |  | > 100 µM |  | > 100 µM |  | > 100 µM |  | > 100 µM |  | > 100 µM
CN(C)C/C=C/C(=O)Nc1cc2c(Nc3ccc(F)c(Cl)c3F)ncnc2cc1OCCOC(F)F | 191 nM | 3.34 µM | 764 nM | 6.19 µM | 2040 nM | 8.23 µM | 1310 nM | 4.67 µM | 499 nM | 3.74 µM | 1460 nM | 3.36 µM | < 0.01 µM |  | 2180 nM | 10.3 µM
Cc1cc(O)c(C2=NN(c3ccc(S(N)(=O)=O)cc3)C(c3ccc(N(C)C)cc3)C2)c(C)c1Cl (centres undefined) | 19200 nM | 38.4 µM | 23000 nM | 62.3 µM | 13300 nM | 28.3 µM | 13400 nM | 29.4 µM | 19300 nM | 76.4 µM | 21400 nM | 43.6 µM | 27.4 µM | 90.8 µM | 26300 nM | 63.1 µM
CN1CCN(c2cc(C(=O)Nc3cc4cc(-c5cnn(C)c5)ccc4cn3)ccn2)CC1 | 97.1 nM | 11.4 µM | 276 nM | 6.18 µM | 71 nM | 11.9 µM | 205 nM | 12 µM | 246 nM | 76.4 µM | 113 nM | 0.364 µM | 0.0631 µM | 2.44 µM | 146 nM | 10.4 µM
COC1=CC23CCCN2CCc2cc4c(cc2C3C1O)OCO4 (centres undefined) |  | > 100 µM |  | > 100 µM |  | > 100 µM |  | > 100 µM |  | > 100 µM |  | > 100 µM |  | > 100 µM |  | > 100 µM
CC(=O)N1c2ccccc2NC2=C(C(=O)N(Cc3ccccc3)C2(C)C)C1c1ccco1 (centres undefined) | 115 nM | > 25 µM | 976 nM | > 21.9 µM | 579 nM | > 16.4 µM | > 25000 nM | > 25 µM | > 21600 nM | > 25 µM | 1030 nM | > 25 µM | 0.786 µM | > 25 µM | > 25000 nM | > 25 µM
Cc1nc(CN2CCCCC2)c(O)c(=O)[nH]1 |  | > 100 µM |  | > 100 µM |  | > 100 µM |  | > 100 µM |  | > 100 µM |  | > 100 µM |  | > 100 µM |  | > 100 µM
CCn1cc(-c2ccnc3[nH]ccc23)c(-c2cccc(NC(=O)Nc3ccc(OCc4ccccc4)cc3)c2)n1 | > 25000 nM | > 25 µM | 4850 nM | > 25 µM | 7440 nM | > 25 µM | > 25000 nM | > 25 µM | > 25000 nM | > 25 µM | 8140 nM | > 25 µM | > 22.4 µM | > 25 µM | > 24100 nM | > 25 µM
C[C@@H]1Cc2c([nH]c3ccccc23)[C@@H](c2c(F)cc(NC3CN(CCCF)C3)cc2F)N1CC(F)(F)CO | 6520 nM | 20.2 µM | 3730 nM | 19.1 µM | 4210 nM | 18 µM | 7710 nM | 25.8 µM | 4100 nM | 16.6 µM | 4370 nM | 16.5 µM | 14.4 µM | 28.4 µM | 1970 nM | 4.51 µM
CCCCCCCCCc1cc[n+](CC(=O)c2ccc([N+](=O)[O-])cc2)cc1 | 729 nM | 2.04 µM | 1690 nM | 4.51 µM | 569 nM | 1.97 µM | 535 nM | 2.15 µM | 2170 nM | 4.92 µM | 565 nM | 2.06 µM | 1.66 µM | 3.18 µM | 1470 nM | 3.2 µM
O=C(/C=C/C=C/c1c(C2CC2)nc2ccccc2c1-c1ccc(F)cc1)c1cccs1 | 2460 nM | > 100 µM | 3680 nM | > 100 µM | 1790 nM | 8.05 µM | 1500 nM | 3.49 µM | 2620 nM | > 100 µM | 1740 nM | 6.14 µM | 9.44 µM | > 100 µM | 1970 nM | 6.22 µM
COc1cc(Nc2ncc(F)c(Nc3ccc4c(n3)NC(=O)C(C)(C)O4)n2)cc(OC)c1OC | > 10000 nM | > 10 µM | 218 nM and 787 nM |  | 366 nM and 527 nM | > 100 µM | 400 nM and 393 nM | > 100 µM | > 10000 nM | > 10 µM | > 100000 nM | > 100 µM |  | > 100 µM | > 10000 nM | > 10 µM
